# How the values were obtained:
# [1] = target: T1, κ opioid receptor (Homo sapiens (Human), UniProt P41145); assay: κ-opioid receptor [35S]GTPγS functional assay, HEK-293 or CHO cells; format: biochemical; conditions: for EC50: GTPγS; for Emax: relative to U69,593
# Experimental: (§1) κ-Opioid Receptor Functional Assay Procedures: Functional [^35S]GTPγS binding assays were conducted as follows. κ opioid receptor membrane solution was prepared by sequentially adding final concentrations of 0.026 μg/μl κ membrane protein (in-house), 10 μg/mL saponin, 3 μM GDP and 0.20 nM [^35S]GTPγS to binding buffer (100 mM NaCl, 10 mM MgCl2, 20 mM HEPES, pH 7.4) on ice. The prepared membrane solution (190 μl/well) was transferred to 96-shallow well polypropylene plates containing 10 μl of 20× concentrated stock solutions of agonist prepared in DMSO. Plates were incubated for 30 min at a temperature of about 25° C. with shaking. Reactions were terminated by rapid filtration onto 96-well Unifilter GF/B filter plates (Perkin Elmer, Shelton, Conn.) using a 96-well tissue harvester (Packard) and followed by three filtration washes with 200 μl ice-cold binding buffer (10 mM NaH2PO4, 10 mM Na2HPO4, pH 7.4). Filter plates were subsequently dried at 50° C. for 2-3 hours. Fifty μl/well scintillation cocktail (Perkin Elmer, Shelton, Conn.) was added and plates were counted in a Packard Top-Count for 1 min/well.
# (§2) κ-Oploid Receptor Functional Data: κ GTP EC50 is the concentration of a compound providing 50% of the maximal response for the compound at a K receptor.
# (§3) κ GTP Emax (%) is the maximal effect elicited by a compound relative to the effect elicited by U69,593.
# (§4) In TABLE 2, activity response of certain Compounds of the Invention to the μ-, δ- and κ-opioid receptors was determined as described above for functional assays using HEK-293 or CHO cells.
# [2] = target: T2, μ-opioid receptor (Homo sapiens (Human), UniProt P35372); assay: μ-opioid receptor [35S]GTPγS functional assay, HEK-293 or CHO cells; format: biochemical; conditions: for EC50: GTPγS; for Emax: relative to DAMGO
# Experimental: (§5) μ-Opioid Receptor Functional Assay Procedures: [^35S]GTPγS functional assays were conducted using freshly thawed μ-receptor membranes prepared in-house from a cell line expressing recombinant μ opioid receptor in a HEK-293, CHO or U-2 OS cell background, or purchased from a commercial source (Perkin Elmer, Shelton, Conn.; or DiscovRx, Fremont, Calif.). Assay reactions were prepared by sequentially adding the following reagents to binding buffer (100 mM NaCl, 10 mM MgCl2, 20 mM HEPES, pH 7.4) on ice (final concentrations indicated): membrane protein (0.026 mg/mL), saponin ([…]), GDP ([…]) and [^35S]GTPγS (0.20 nM; Perkin Elmer, Shelton, Conn.). The prepared membrane solution (190 μl/well) was transferred to 96-shallow well polypropylene plates containing 10 μl of 20× concentrated stock solutions of the agonist [D-Ala^2, N-methyl-Phe^4 Gly-ol^5]-enkephalin (DAMGO) prepared in dimethyl sulfoxide (DMSO). Plates were incubated for 30 min at about 25° C. with shaking. Reactions were terminated by rapid filtration onto 96-well Unifilter GF/B filter plates (Perkin Elmer, Shelton, Conn.) using a 96-well tissue harvester (Perkin Elmer, Shelton, Conn.) followed by three filtration washes with 200 μl of ice-cold wash buffer (10 mM NaH2PO4, 10 mM Na2HPO4, pH 7.4). Filter plates were subsequently dried at 50° C. for 2-3 hours. BetaScint scintillation cocktail (Perkin Elmer, Shelton, Conn.) was added (50 μl/well) and plates were counted using a Packard Top-Count for 1 min/well. Data were analyzed using the sigmoidal dose-response curve fitting functions in GraphPad PRISM v. 3.0, or an in-house function for non-linear, sigmoidal dose-response curve-fitting.
# (§6) μ-Opioid Receptor Functional Data: μ GTP EC50 is the concentration of a compound providing 50% of the maximal response for the compound at a μ-opioid receptor.
# (§7) μ GTP Emax (%) is the maximal effect elicited by a compound relative to the effect elicited by DAMGO, a standard μ agonist. Generally, the μ GTP Emax (%) value measures the efficacy of a compound to treat or prevent pain or other Conditions.
# as §4
# [3] = target: recombinant human kappa opioid receptor (κ) (Homo sapiens (Human), UniProt P41145); assay: κ-opioid receptor radioligand dose-displacement binding assay ([3H]-U69,593)
# Experimental: κ-Opioid Receptor Binding Assay Procedures: Membranes from HEK-293 cells, CHO or U-2 OS cells expressing the recombinant human kappa opioid receptor (κ) (cloned in house) were prepared by lysing cells in ice cold hypotonic buffer (2.5 mM MgCl2, 50 mM HEPES, pH 7.4) (10 mL/10 cm dish) followed by homogenization with a tissue grinder/Teflon pestle. Membranes were collected by centrifugation at 30,000×g for 15 min at 4° C. and pellets were resuspended in hypotonic buffer to a final concentration of 1-3 mg/mL. Protein concentrations were determined using the BioRad protein assay reagent with bovine serum albumen as standard. Aliquots of κ receptor membranes were stored at −80° C.
# Radioligand dose displacement assays used 0.4 nM [^3H]-U69,593 (GE Healthcare, Piscataway, N.J.; 40 Ci/mmole) with 15 μg membrane protein (recombinant κ opioid receptor expressed in HEK 293 cells; in-house prep) in a final volume of 200 μl binding buffer (5% DMSO, 50 mM Trizma base, pH 7.4). Non-specific binding was determined in the presence of 10 μM unlabeled naloxone or U69,593. All reactions were performed in 96-well polypropylene plates for 1 hour at a temperature of about 25° C. Binding reactions were terminated by rapid filtration onto 96-well Unifilter GF/C filter plates (Perkin Elmer, Shelton, Conn.) presoaked in 0.5% polyethylenimine (Sigma). Harvesting was performed using a 96-well tissue harvester (Perkin Elmer, Shelton, Conn.) followed by five filtration washes with 200 μl ice-cold binding buffer. Filter plates were subsequently dried at 50° C. for 1-2 hours. Fifty μl/well scintillation cocktail (Perkin Elmer, Shelton, Conn.) was added and plates were counted in a Packard Top-Count for 1 min/well.
# (§8) In TABLE 1, binding affinity of certain Compounds of the Invention to the μ-, δ- and κ-opioid receptors was determined as described above.
# [4] = target: T2, μ-opioid receptor; assay: μ-opioid receptor radioligand dose-displacement binding assay ([3H]-diprenorphine)
# Experimental: μ-Opioid Receptor Binding Assay Procedures: Radioligand dose-displacement binding assays for μ-opioid receptors used 0.3 nM [^3H]-diprenorphine (Perkin Elmer, Shelton, Conn.), with […] membrane protein/well in a final volume of 500 μl binding buffer (10 mM MgCl2, 1 mM EDTA, 5% DMSO, 50 mM HEPES, pH 7.4). Reactions were carried out in the absence or presence of increasing concentrations of unlabeled naloxone. All reactions were conducted in 96-deep well polypropylene plates for 2 hours at room temperature. Binding reactions were terminated by rapid filtration onto 96-well Unifilter GF/C filter plates (Perkin Elmer, Shelton, Conn.), presoaked in 0.5% polyethylenimine using a 96-well tissue harvester (Perkin Elmer, Shelton, Conn.) followed by performing three filtration washes with 500 μl of ice-cold binding buffer. Filter plates were subsequently dried at 50° C. for 2-3 hours. BetaScint scintillation cocktail (Perkin Elmer, Shelton, Conn.) was added (50 μl/well), and plates were counted using a Packard Top-Count for 1 min/well. The data were analyzed using the one-site competition curve fitting functions in GraphPad PRISM™ v. 3.0 or higher (San Diego, Calif.), or an in-house function for one-site competition curve-fitting.
# as §8
# [5] = target: T1, κ opioid receptor; assay: κ-opioid receptor [35S]GTPγS functional assay, U-2 OS cells; format: biochemical; conditions: for EC50: GTPγS; for Emax: relative to U69,593
# Experimental: as §1, §2, §3
# (§9) The following TABLE 3 provides results on the activity response of certain Compounds of the Invention at the μ- and κ-opioid receptors determined as described above using U-2 OS cells.
# [6] = target: T2, μ-opioid receptor; assay: μ-opioid receptor [35S]GTPγS functional assay, U-2 OS cells; format: biochemical; conditions: for EC50: GTPγS; for Emax: relative to DAMGO
# Experimental: as §5, §6, §7, §9
SMILES,EC50 [1] [nM],Emax [1] [%],EC50 [2] [nM],Emax [2] [%],Ki [3] [nM],Ki [4] [nM],EC50 [5] [nM],Emax [5] [%],EC50 [6] [nM],Emax [6] [%]
"COc1ccc(CN2C=C3[C@H]4Cc5ccc(OC)cc5[C@@]3(CCN4CC3CC3)CC2=O)cc1 [Compound 2, (5R,10bR)-13-(cyclopropylmethyl)-9-methoxy-3-(4-methoxybenzyl)-5,6-dihydro-1H-5,10b-(epiminoethano)benzo[f]isoquinolin-2(3H)-one]",714 ± 256,68.8,268 ± 44,95.3,,,,,,
"COc1ccc2c(c1)[C@]13CCN(CC4CC4)[C@H](C2)[C@@H]1CNC(=O)C3 [Compound 3, (4aS,5R,10bS)-13-(cyclopropylmethyl)-9-methoxy-4,4-a,5,6-tetrahydro-1H-5,10b-(epiminoethano)benzo[f]isoquinolin-2(3H)-one]",435 ± 74,84,856 ± 48.7,62.7,5.84 ± 0.59,,,,,
"O=C1C[C@]23CCN(CC4CC4)[C@H](Cc4ccc(O)cc42)C3=CN1Cc1ccc(O)cc1 [Compound 6, (5R,10bR)-13-(cyclopropylmethyl)-9-hydroxy-3-(4-hydroxybenzyl)-5,6-dihydro-1H-5,10b-(epiminoethano)benzo[f]isoquinolin-2(3H)-one]",30.6 ± 6.75,41.7,57.5 ± 15.5,28,1.27 ± 0.19,22.8 ± 8.32,,,,
"COc1ccc(CN2CC[C@]34CCN(CC5CC5)[C@H](Cc5ccc(OC)cc53)[C@@H]4C2)cc1 [Compound 9, (4aS,5R,10bR)-13-(cyclopropylmethyl)-9-methoxy-3-(4-methoxybenzyl)-2,3,4,4a,5,6-hexahydro-1H-5,10b-(epiminoethano)benzo[f]isoquinoline]",1990 ± 339,46.7,732 ± 70.1,89,204 ± 48.6,,,,,
"COc1ccc2c(c1)[C@@]13CCNC[C@H]1[C@@H](C2)N(CC1CC1)CC3 [Compound 10, (4aS,5R,10bR)-13-(cyclopropylmethyl)-9-methoxy-2,3,4,4a,5,6-hexahydro-1H-5,10b-(epiminoethano)benzo[f]isoquinoline]",2180 ± 562,71.3,2180 ± 394,66.7,37 ± 7.96,,,,,
"NC(=O)CN1CC[C@]23CCN(CC4CC4)[C@H](Cc4ccc(O)cc42)[C@@H]3C1 [Compound 11, 2-((4aS,5R,10bR)-13-(cyclopropylmethyl)-9-hydroxy-4,4-a,5,6-tetrahydro-1H-5,10b-(epiminoethano)benzo[f]isoquinolin-3(2H)-yl)acetamide]",5.25 ± 1.09,63,2.44 ± 0.76,87.2,0.26,,0.92 ± 0.15,102 ± 2.33,2.41 ± 0.36,39.3 ± 3.28
"Oc1ccc(CN2CC[C@]34CCN(CC5CC5)[C@H](Cc5ccc(O)cc53)[C@@H]4C2)cc1 [Compound 12, (4aS,5R,10bR)-13-(cyclopropylmethyl)-3-(4-hydroxybenzyl)-2,3,4,4a,5,6-hexahydro-1H-5,10b-(epiminoethano)benzo[f]isoquinolin-9-ol]",20.8 ± 2.53,54.3,6.87 ± 0.84,58,0.98 ± 0.25,,6.51 ± 1.03,110 ± 2.73,7.11 ± 2.99,47 ± 8.14
"C[C@H](N)C(=O)N1CC[C@]23CCN(CC4CC4)[C@H](Cc4ccc(O)cc42)[C@@H]3C1 [Compound 14, (S)-2-amino-1-((4aS,5R,10bS)-13-(cyclopropylmethyl)-9-hydroxy-4,4-a,5,6-tetrahydro-1H-5,10b-(epiminoethano)benzo[f]isoquinolin-3(2H)-yl)propan-1-one]",1.98 ± 0.51,86,4.62 ± 1.55,82.7,0.09 ± 0.02,,0.16 ± 0.025,104 ± 3.61,9.82 ± 1.96,35.3 ± 4.18
"O=C(O)CN1CC[C@]23CCN(CC4CC4)[C@H](Cc4ccc(O)cc42)[C@@H]3C1 [Compound 15, 2-((4aS,5R,10bR)-13-(cyclopropylmethyl)-9-hydroxy-4,4-a,5,6-tetrahydro-1H-5,10b-(epiminoethano)benzo[f]isoquinolin-3(2H)-yl)acetic acid]",55 ± 18.9,73.3,28.6 ± 9.31,53.3,2.52 ± 0.97,,5.44 ± 0.39,108 ± 4.7,20.8 ± 0.89,27 ± 3

# Source: patent US8937084B2, “Nitrogen containing morphinan derivatives and the use thereof” (Purdue Pharma L.P., priority 2012, dated 2015)
